Experimental data published in patent US7189720B2 (H. Lundbeck A/S, priority 1999, dated 2007).

Each compound was assayed against T1, human Y5 receptor (Homo sapiens, UniProt Q15761) (assay: Radioligand binding to membranes, cloned human Y5 receptor). Conditions: Table 1; read-out: Ki (nM) hNPY-5.
T1 construct: expressed in transfected cells; host or cells: mouse fibroblast LM(tk-) cells, e.g. L-hY5-7 (ATCC CRL-11995)
T1 sequence (Q15761 1-445): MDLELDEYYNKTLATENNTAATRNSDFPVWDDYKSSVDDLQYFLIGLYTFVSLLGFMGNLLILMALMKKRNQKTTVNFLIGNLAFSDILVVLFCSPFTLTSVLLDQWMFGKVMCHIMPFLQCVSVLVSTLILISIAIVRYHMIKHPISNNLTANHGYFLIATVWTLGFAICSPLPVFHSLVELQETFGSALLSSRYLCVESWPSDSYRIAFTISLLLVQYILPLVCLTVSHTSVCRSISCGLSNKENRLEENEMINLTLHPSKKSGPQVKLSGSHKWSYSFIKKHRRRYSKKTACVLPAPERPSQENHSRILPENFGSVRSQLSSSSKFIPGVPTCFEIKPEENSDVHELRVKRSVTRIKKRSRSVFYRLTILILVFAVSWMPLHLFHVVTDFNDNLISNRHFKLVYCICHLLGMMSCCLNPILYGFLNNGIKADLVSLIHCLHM
Work on `CC(=O)N1CCN(c2nc(NCC3CCC(CNS(=O)(=O)c4cccc5ccccc45)CC3)nc(NC(C)C)n2)CC1` (stereo not shown) [Example 27, N1-{[4-({[4-(4-acetylpiperazino)-6-(isopropylamino)-1,3,5-triazin-2-yl]amino}methyl)cyclohexyl]methyl}-1-naphthalenesulfonamide] yielded a Ki of 31 nM. Compound `CCCCCNc1nc(NCC2CCC(CNS(=O)(=O)c3cccc4ccccc34)CC2)nc(NC(C)C)n1` (stereo not shown) [Example 9, N1-[4-([4-(isopropylamino)-6-(pentylamino)-1,3,5-triazin-2-yl]aminomethyl)cyclohexyl]methyl-1-naphthalenesulfonamide] has a Ki of 6 nM. `COc1ccc(CCNc2nc(NCC3CCC(CNS(=O)(=O)c4cccc5ccccc45)CC3)nc(NC(C)C)n2)cc1` (stereo not shown) [Example 16, N1-({4-[({4-(isopropylamino)-6-[(4-methoxyphenethyl)amino]-1,3,5-triazin-2-yl}amino)methyl]cyclohexyl}methyl)-1-naphthalenesulfonamide] gave a Ki of 313 nM. `CC(C)Nc1nc(NCCN(C)C)nc(NCC2CCC(CNS(=O)(=O)c3cccc4ccccc34)CC2)n1` (stereo not shown) [Example 14, N1-{[4-({[4-{[2-(dimethylamino)ethyl]amino}-6-(isopropylamino)-1,3,5-triazin-2-yl]amino}methyl)cyclohexyl]methyl}-1-naphthalenesulfonamide] showed a Ki of 194 nM. Compound `CCNc1nc(NCC2CCC(CNS(=O)(=O)c3cccc4ccccc34)CC2)nc(NC(C)C)n1` (stereo not shown) [Example 2, N1-[4-([4-(ethylamino)-6-(isopropylamino)-1,3,5-triazin-2-yl]aminomethyl)cyclohexyl]methyl-1-naphthalenesulfonamide] has a Ki of 7 nM. `CC(C)Nc1nc(NCC2CCC(CNS(=O)(=O)c3cccc4ccccc34)CC2)nc(N(C)C)n1` (stereo not shown) [Example 17, N1-{[4-({[4-(dimethylamino)-6-(isopropylamino)-1,3,5-triazin-2-yl]amino}methyl)cyclohexyl]methyl}-1-naphthalenesulfonamide] showed a Ki of 27 nM.

Same assay, conditions: Table 2; read-out: Ki (nM) hNPY-5
`CCNc1nc(NCC)nc(NCC2CCC(CNS(=O)(=O)c3ccccc3C)CC2)n1` (stereo not shown) [Example 33, N1-[4-([4,6-di(ethylamino)-1,3,5-triazin-2-yl]aminomethyl)cyclohexyl]methyl-2-methyl-1-benzenesulfonamide] showed a Ki of 22 nM. `CCNc1nc(NCC)nc(NCC2CCC(CNS(=O)(=O)c3oc(C)nc3C)CC2)n1` (stereo not shown) [Example 36, N5-[4-([4,6-di(ethylamino)-1,3,5-triazin-2-yl]aminomethyl)cyclohexyl]methyl-2,4-dimethyl-1,3-oxazole-5-sulfonamide] was tested, and the Ki was 71 nM. With `CCNc1nc(NCC)nc(NCC2CCC(CNS(=O)(=O)c3ccc4nsnc4c3)CC2)n1` (stereo not shown) [Example 40, N5-[4-([4,6-di(ethylamino)-1,3,5-triazin-2-yl]aminomethyl)cyclohexyl]methyl-2,1,3-benzothiadiazole-5-sulfonamide] the Ki was 5 nM.

Same assay, conditions: Table 3; read-out: Ki (nM) hNPY-5
`CN(C)S(=O)(=O)NCC1CCC(CNc2nc(N3CCOCC3)nc(N3CCOCC3)n2)CC1` (stereo not shown) [Example 50, N′-[(4-[(4,6-dimorpholino-1,3,5-triazin-2-yl)amino]methylcyclohexyl)methyl]-N,N-dimethylsulfamide] was tested, and the Ki was 3510 nM. For `CC(C)(C)c1ccc(S(=O)(=O)NCC2CCC(CNc3nc(N4CCCC4)nc(N4CCCC4)n3)CC2)cc1` (stereo not shown) [Example 46, N1-[(4-[(4,6-ditetrahydro-1H-1-pyrrolyl-1,3,5-triazin-2-yl)amino]methylcyclohexyl)methyl]-4-(tert-butyl)-1-benzenesulfonamide], the Ki was 68 nM. `O=S(=O)(NCC1CCC(CNc2nc(NC3CC3)nc(-c3ccccn3)n2)CC1)c1ccc(F)cc1` (stereo not shown) [Example 55, N1-[4-([4-(cyclopropylamino)-6-(2-pyridyl)-1,3,5-triazin-2-yl]aminomethyl)cyclohexyl]methyl-4-fluoro-1-benzenesulfonamide] was tested, and the Ki was 209 nM.

Same assay, conditions: Table 4; read-out: Ki (nM) hNPY-5
For `CCNc1nc(NCC)nc(NCCCn2ccnc2)n1` [Example 57, N2,N4-diethyl-N6-[3-(1H-1-imidazolyl)propyl]-1,3,5-triazine-2,4,6-triamine], the Ki was greater than 100000 nM. `CCNc1nc(NCC)nc(NCCCCCn2cccn2)n1` [Example 56, N2,N4-diethyl-N6-[5-(1H-1-pyrazolyl)pentyl]-1,3,5-triazine-2,4,6-triamine] was tested, and the Ki was 94400 nM.

Same assay, conditions: Table 5; read-out: Ki, nM hNPY-5
For `COc1ccc(C)cc1S(=O)(=O)NCCCCCNc1nc(-c2cccs2)cs1` [Example 92, N1-(5-{[4-(2-Thienyl)-1,3-thiazol-2-yl]amino}pentyl)-2-methoxy-5-methyl-1-benzenesulfonamide], the Ki was 7.9 nM. `Cc1nc(-c2csc(NCCCCCNS(=O)(=O)N(C)C)n2)c(C)s1` [Example 96, N′-(5-[4-(2,5-Dimethyl-1,3-thiazol-4-yl)-1,3-thiazol-2-yl]aminopentyl)-N,N-dimethylsulfamide] was tested, and the Ki was 8.1 nM.

Same assay, conditions: Table 6; read-out: Ki, nM hNPY-5
`CN(C)c1cccc2c(S(=O)(=O)NC[C@H]3CC[C@H](Nc4nc5c(s4)CCSc4ccccc4-5)CC3)cccc12` [Example 122, N1-{[4-(4,5-Dihydrobenzo[2,3]thiepino[4,5-d][1,3]thiazol-2-ylamino)cyclohexyl]methyl}-5-(dimethylamino)-1-naphthalenesulfonamide] gave a Ki of 27 nM. In the case of `COc1ccc(C)cc1S(=O)(=O)NCCCCCCNc1nc2c(s1)CCSc1ccccc1-2` [Example 113, N1-[6-(4,5-Dihydrobenzo[2,3]thiepino[4,5-d][1,3]thiazol-2-ylamino)hexyl]-2-methoxy-5-methyl-1-benzenesulfonamide], the Ki is reported as 5.4 nM. `CCCS(=O)(=O)NCCCCCCNc1nc2c(s1)CCSc1ccccc1-2` [Example 143, N1-[6-(4,5-Dihydrobenzo[2,3]thiepino[4,5-d][1,3]thiazol-2-ylamino)hexyl]-1-propanesulfonamide] gave a Ki of 3.6 nM. In the case of `O=S(=O)(NC[C@H]1CC[C@H](Nc2nc3c(s2)CCSc2ccccc2-3)CC1)c1ccc(F)cc1F` [Example 151, N1-{[4-(4,5-Dihydrobenzo[2,3]thiepino[4,5-d][1,3]thiazol-2-ylamino)cyclohexyl]methyl}-2,4-difluoro-1-benzenesulfonamide], the Ki is reported as 7.9 nM. Compound `O=C(NCCCCCNc1nc2c(s1)CCSc1ccccc1-2)c1cccs1` [Example 141, N2-[5-(4,5-Dihydrobenzo[2,3]thiepino[4,5-d][1,3]thiazol-2-ylamino)pentyl]-2-thiophenecarboxamide] has a Ki of 84 nM. Compound `COc1cccc(Br)c1S(=O)(=O)NCCCCCNc1nc2c(s1)CCSc1ccccc1-2` [Example 132, N1-[5-(4,5-Dihydrobenzo[2,3]thiepino[4,5-d][1,3]thiazol-2-ylamino)pentyl]-2-bromo-6-methoxy-1-benzenesulfonamide] has a Ki of 9.7 nM. In the case of `O=[N+]([O-])c1ccccc1S(=O)(=O)NCCCCCNc1nc2c(s1)CCSc1ccccc1-2` [Example 130, N1-[5-(4,5-Dihydrobenzo[2,3]thiepino[4,5-d][1,3]thiazol-2-ylamino)pentyl]-2-nitro-1-benzenesulfonamide], the Ki is reported as 5.2 nM. For `CS(=O)(=O)NCCCCCCNc1nc2c(s1)CCSc1ccccc1-2` [Example 103, N-[6-(4,5-Dihydrobenzo[2,3]thiepino[4,5-d][1,3]thiazol-2-ylamino)hexyl]methanesulfonamide], the Ki was 7.4 nM. Work on `CN(C)C(=O)NCCCCCNc1nc2c(s1)CCSc1ccccc1-2` [Example 139, N′-[5-(4,5-Dihydrobenzo[2,3]thiepino[4,5-d][1,3]thiazol-2-ylamino)pentyl]-N,N-dimethylurea] yielded a Ki of 122 nM. For `O=S(=O)(NC[C@H]1CC[C@H](Nc2nc3c(s2)CCSc2ccccc2-3)CC1)c1cccc(C(F)(F)F)c1` [Example 150, N1-{[4-(4,5-Dihydrobenzo[2,3]thiepino[4,5-d][1,3]thiazol-2-ylamino)cyclohexyl]methyl}-3-(trifluoromethyl)-1-benzenesulfonamide], the Ki was 21 nM. In the case of `O=S(=O)(NCCCCCCNc1nc2c(s1)CCSc1ccccc1-2)c1cccc(C(F)(F)F)c1` [Example 144, N1-[6-(4,5-dihydrobenzo[2,3]thiepino[4,5-d][1,3]thiazol-2-ylamino)hexyl]-3-(trifluoromethyl)-1-benzenesulfonamide], the Ki is reported as 22.4 nM. Work on `COCCN(C=O)[C@H]1CC[C@H](CNc2nc3c(s2)CCSc2ccc(F)cc2-3)CC1` [Example 164, trans-N-(4-[(9-Fluoro-4,5-dihydrobenzo[2,3]thiepino-[4,5-d][1,3]thiazol-2-yl)amino]methylcyclohexyl)-N-(2-methoxyethyl)formamide] yielded a Ki of 13 nM. For `O=S(=O)(NCCCCCNc1nc2c(s1)CCSc1ccccc1-2)c1ccccc1F` [Example 128, N1-[5-(4,5-Dihydrobenzo[2,3]thiepino[4,5-d][1,3]thiazol-2-ylamino)pentyl]-2-fluoro-1-benzenesulfonamide], the Ki was 3.7 nM. In the case of `O=S(=O)(Cc1ccccc1)NC[C@H]1CC[C@H](Nc2nc3c(s2)CCSc2ccccc2-3)CC1` [Example 153, N-{[4-(4,5-Dihydrobenzo[2,3]thiepino[4,5-d][1,3]thiazol-2-ylamino)cyclohexyl]methyl}phenyl-methanesulfonamide], the Ki is reported as 8.9 nM. `O=S(=O)(NCCCCCCNc1nc2c(s1)CCSc1ccccc1-2)c1c(Cl)nc2sccn12` [Example 117, N5-[6-(4,5-Dihydrobenzo[2,3]thiepino[4,5-d][1,3]thiazol-2-ylamino)hexyl]-6-chloroimidazo[2,1-b][1,3]thiazole-5-sulfonamide] showed a Ki of 6.6 nM.
